Measurements taken from article PMC3252466 (Chirality, 2011).

Columns and labels:
human CYP2C9 = human CYP2C9 (Homo sapiens, UniProt P11712); conditions: read-out: IC50 CYP2C9; recombinant human CYP2C9 15 nM, 150 μM MFC, 45 min, 37°C; mean (95% confidence interval)
human CYP2C19 = human CYP2C19 (Homo sapiens, UniProt P33261); conditions: read-out: IC50 CYP2C19; recombinant human CYP2C19 7.5 nM, 25 μM CEC, 30 min, 37°C; mean (95% confidence interval)
CYP2B6 = CYP2B6 (Homo sapiens, UniProt P20813); conditions: concentrations up to 10 μM; pooled HLMs, 100 μM bupropion; data not shown
Chain of CYP2B6 (P20813 whole entry): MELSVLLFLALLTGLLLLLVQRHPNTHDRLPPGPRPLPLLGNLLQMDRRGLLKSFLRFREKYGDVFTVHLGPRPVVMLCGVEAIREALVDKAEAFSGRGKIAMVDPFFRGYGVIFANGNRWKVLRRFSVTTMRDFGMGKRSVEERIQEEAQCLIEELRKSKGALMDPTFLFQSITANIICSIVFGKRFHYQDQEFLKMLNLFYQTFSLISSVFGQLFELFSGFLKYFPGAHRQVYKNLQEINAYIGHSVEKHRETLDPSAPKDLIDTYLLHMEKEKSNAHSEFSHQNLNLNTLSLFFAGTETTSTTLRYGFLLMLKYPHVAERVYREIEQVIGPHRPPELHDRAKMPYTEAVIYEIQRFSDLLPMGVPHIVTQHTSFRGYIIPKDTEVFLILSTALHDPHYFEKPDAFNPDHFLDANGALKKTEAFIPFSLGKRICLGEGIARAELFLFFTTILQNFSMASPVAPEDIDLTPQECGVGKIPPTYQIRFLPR

Chain of human CYP2C19 (P33261 whole entry): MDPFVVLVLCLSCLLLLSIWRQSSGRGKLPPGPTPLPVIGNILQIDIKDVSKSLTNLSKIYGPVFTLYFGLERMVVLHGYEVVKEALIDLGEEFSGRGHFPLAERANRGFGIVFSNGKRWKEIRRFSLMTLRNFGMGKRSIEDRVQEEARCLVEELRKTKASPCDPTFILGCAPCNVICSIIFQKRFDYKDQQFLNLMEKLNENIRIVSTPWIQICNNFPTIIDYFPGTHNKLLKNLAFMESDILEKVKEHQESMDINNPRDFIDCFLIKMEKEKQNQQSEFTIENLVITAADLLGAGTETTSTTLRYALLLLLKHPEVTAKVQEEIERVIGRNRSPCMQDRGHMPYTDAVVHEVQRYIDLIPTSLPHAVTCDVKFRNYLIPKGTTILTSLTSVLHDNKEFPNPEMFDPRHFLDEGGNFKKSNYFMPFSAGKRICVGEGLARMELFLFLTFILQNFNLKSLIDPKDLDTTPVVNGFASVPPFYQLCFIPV
Chain of human CYP2C9 (P11712 whole entry): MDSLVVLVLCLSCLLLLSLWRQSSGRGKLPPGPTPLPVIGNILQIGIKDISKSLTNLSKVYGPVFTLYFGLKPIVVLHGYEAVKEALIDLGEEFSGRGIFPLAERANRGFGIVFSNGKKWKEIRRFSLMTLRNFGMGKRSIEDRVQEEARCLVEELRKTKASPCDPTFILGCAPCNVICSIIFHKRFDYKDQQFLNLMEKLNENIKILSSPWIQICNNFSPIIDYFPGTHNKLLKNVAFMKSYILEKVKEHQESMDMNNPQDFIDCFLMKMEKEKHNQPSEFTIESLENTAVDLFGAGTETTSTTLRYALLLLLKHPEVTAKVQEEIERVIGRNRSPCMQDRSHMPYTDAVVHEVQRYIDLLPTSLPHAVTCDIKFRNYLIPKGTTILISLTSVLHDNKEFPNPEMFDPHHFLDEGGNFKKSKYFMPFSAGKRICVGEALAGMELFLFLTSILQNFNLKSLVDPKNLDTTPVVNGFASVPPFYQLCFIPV

## O=C1C[C@H](c2ccc(O)cc2)Oc2cc(O)cc(O)c21 [(R)-naringenin]
Human CYP2C9
  IC50: 1.6 µM
Human CYP2C19
  IC50: 4.9 µM

## O=C1C[C@@H](c2ccc(O)cc2)Oc2cc(O)cc(O)c21 [(S)-naringenin]
Human CYP2C9
  IC50: 3.4 µM
Human CYP2C19
  IC50: 1.2 µM

## naringenin [rac-naringenin]
CYP2B6
  Inhibition of CYP2B6: No appreciable inhibition
